Reference: patent US9796753B2, “N-substituted indenoisoquinolines and syntheses thereof” (Purdue Research Foundation, priority 2005, dated 2017)
Like-named read-outs stand apart in the source and are kept apart here.

How the values were obtained:
Assay type in all cases: cell-based
breast MDA-MB-435 = experiment: COMPARE screening (NCI human cancer cell line screen), cytotoxicity GI50
Description: COMPARE screening. The compounds described herein were examined for antiproliferative activity against the human cancer cell lines in the National Cancer Institute screen (COMPARE screening), in which the activity of each compound was evaluated with approximately 55 different cancer cell lines of diverse tumor origins. […] Therefore, the MGM value represents an overall assessment of toxicity of the compound across numerous cell lines.

[1] = test system: all human cancer cell lines successfully tested; experiment: NCI screen mean graph midpoint (MGM) for growth inhibition
In short: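 NCI60 panel cells exposed to compound at 100, 10, 1, 0.1 and 0.01 μM for 48 h, then sulforhodamine B staining. Percentage growth versus control plotted against log concentration; MGM is the midpoint across all lines tested.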

renal SN12C = experiment: COMPARE screening (NCI human cancer cell line screen), cytotoxicity GI50
In short: (§1)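 Read-out is sulforhodamine B optical density, expressed as a ratio to untreated control and plotted as percentage growth against log10 compound concentration. Exposure lasted 48 h at five concentrations from 100 to 0.01 μM in the NCI60 screen.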

CNS SF-539 = experiment: as above
In short: as §1

lung HOP-62 = experiment: as above
In short: as §1

colon HCT-116 = experiment: as above
In short: as §1

prostate DU-145 = experiment: as above
In short: as §1

ovarian OVCAR-3 = experiment: as above
In short: as §1

melanoma UACC-62 = experiment: as above
In short: as §1

[2] = breast MDA-MB-435, concentration corresponding to 50% growth inhibition, read-out: cytotoxicity (GI50 in μM) breast MDA-MB-435
[3] = all human cancer cell lines successfully tested
[4] = renal SN12C, concentration corresponding to 50% growth inhibition, read-out: cytotoxicity (GI50 in μM) renal SN12C
[5] = CNS SF-539, concentration corresponding to 50% growth inhibition, read-out: cytotoxicity (GI50 in μM) CNS SF-539
[6] = lung HOP-62, concentration corresponding to 50% growth inhibition, read-out: cytotoxicity (GI50 in μM) lung HOP-62
[7] = colon HCT-116, concentration corresponding to 50% growth inhibition, read-out: cytotoxicity (GI50 in μM) colon HCT-116
[8] = prostate DU-145, concentration corresponding to 50% growth inhibition, read-out: cytotoxicity (GI50 in μM) prostate DU-145
[9] = ovarian OVCAR-3, concentration corresponding to 50% growth inhibition, read-out: cytotoxicity (GI50 in μM) ovarian OVCAR-3
[10] = melanoma UACC-62, concentration corresponding to 50% growth inhibition, read-out: cytotoxicity (GI50 in μM) melanoma UACC-62
[11] = Table 1, average GI50 of all cell lines tested (approximately 55), test range 10^−8 to 10^−4 molar

| SMILES | GI50 (breast MDA-MB-435; [2]) | MGM (mean GI50 across cell lines) [1, 3] | GI50 (renal SN12C; [4]) | GI50 (CNS SF-539; [5]) | GI50 (lung HOP-62; [6]) | GI50 (colon HCT-116; [7]) | GI50 (prostate DU-145; [8]) | GI50 (ovarian OVCAR-3; [9]) | GI50 (melanoma UACC-62; [10]) | GI50 (breast MDA-MB-435) | MGM (mean graph midpoint for growth inhibition) [1, 11] | GI50 (renal SN12C) | GI50 (CNS SF-539) | GI50 (lung HOP-62) | GI50 (colon HCT-116) | GI50 (prostate DU-145) | GI50 (ovarian OVCAR-3) | GI50 (melanoma UACC-62) | MGM (mean GI50 across cell lines) [1, 11] | MGM (mean graph midpoint for growth inhibition) [1, 3] |
| --- | --- | --- | --- | --- | --- | --- | --- | --- | --- | --- | --- | --- | --- | --- | --- | --- | --- | --- | --- | --- |
| CC(C)(C)OC(=O)N(CCCN(CCn1c2c(c3ccccc3c1=O)C(=O)c1ccccc1-2)C(=O)OC(C)(C)C)CCn1c2c(c3ccccc3c1=O)C(=O)c1ccccc1-2 [Compound 13a, Bis-1,3-{(5,6-dihydro-5,11-diketo-11H-indeno[1,2-c]isoquinoline)-(6-ethyl-tert-BOCamino)}propane] | > 50.1 µM | 33.9 µM | > 50.1 µM | > 50.1 µM | 22.4 µM | 22.9 µM | > 50.1 µM | 21.4 µM | > 50.1 µM | – | – | – | – | – | – | – | – | – | – | – |
| COc1ccc2c(c1)C(=O)c1c-2n(CCCn2ccnc2)c(=O)c2ccccc12 [Compound 5bs] | – | – | – | – | – | – | – | – | – | 0.646 µM | 0.416 ± 0.134 µM | 0.676 µM | 0.178 µM | 0.056 µM | 0.11 µM | 0.204 µM | 1.66 µM | 0.071 µM | – | – |
| O=C1c2ccccc2-c2oc(=O)c3cc4c(cc3c21)OCO4 [Compound 4b] | – | – | – | – | – | – | – | – | – | > 100 µM | – | > 100 µM | > 100 µM | 53.7 µM | > 100 µM | > 100 µM | > 100 µM | > 100 µM | 57.5 µM | – |
| CC(C)(C)OC(=O)N(CCCCN(CCCn1c2c(c3ccccc3c1=O)C(=O)c1ccccc1-2)C(=O)OC(C)(C)C)CCCn1c2c(c3ccccc3c1=O)C(=O)c1ccccc1-2 [Compound 13d, Bis-1,4-{(5,6-dihydro-5,11-diketo-11H-indeno[1,2-c]isoquinoline)-(6-propyl-tert-BOCamino)}butane] | 69.2 µM | 35.5 µM | 36.3 µM | 8.13 µM | 11 µM | 1.91 µM | 47.9 µM | 69.2 µM | 93.3 µM | – | – | – | – | – | – | – | – | – | – | – |
| COc1ccc2c(c1)C(=O)c1c-2n(CCCCl)c(=O)c2cc([N+](=O)[O-])ccc12 [Compound 5ba] | – | – | – | – | – | – | – | – | – | 3.24 µM | 0.178 ± 0.012 µM | < 0.01 µM | 0.027 µM | 0.295 µM | 0.794 µM | 0.036 µM | 3.39 µM | < 0.01 µM | – | – |
| CC(C)(C)OC(=O)NCCCCCCCCCCn1c2c(c3ccccc3c1=O)C(=O)c1ccccc1-2 [Compound 5ai, 6-(10′-tert-BOC-Aminodecyl)-5,6-dihydro-5,1-dioxo-11H-indeno[1,2-c]isoquinoline] | – | – | – | – | – | – | – | – | – | > 100 µM | – | > 100 µM | 42.7 µM | 28.8 µM | 60.3 µM | 97.7 µM | > 100 µM | 43.6 µM | 52.5 µM | – |
| O=C(O)C(F)(F)F.O=C(O)C(F)(F)F.O=C1c2ccccc2-c2c1c1ccc([N+](=O)[O-])cc1c(=O)n2CCNCCCNCCn1c2c(c3ccc([N+](=O)[O-])cc3c1=O)C(=O)c1ccccc1-2 [Compound 14m, Bis-1,3-{(5,6-dihydro-5,11-diketo-3-nitro-11H-indeno[1,2-c]isoquinoline)-6-ethylamino}propane Bis{trifluoroacetate)] | 0.437 µM | – | 0.123 µM | 0.324 µM | 0.631 µM | 0.044 µM | 0.813 µM | 0.245 µM | 0.603 µM | – | – | – | – | – | – | – | – | – | – | 0.354 ± 0.184 µM |
| CC(C)(C)OC(=O)NCCCCCCCCCCCCn1c2c(c3ccccc3c1=O)C(=O)c1ccccc1-2 [Compound 5ak, 6-(12′-tert-BOC-Aminododecyl)-5,6-dihydro-5,1-dioxo-11H-indeno[1,2-c]isoquinoline] | – | – | – | – | – | – | – | – | – | > 100 µM | – | > 100 µM | 20.4 µM | 32.4 µM | > 100 µM | 91.2 µM | > 100 µM | 27.5 µM | 51.3 µM | – |
| Cl.O=C1c2ccccc2-c2c1c1ccc([N+](=O)[O-])cc1c(=O)n2CCCNCCO [Compound 5bl] | – | – | – | – | – | – | – | – | – | 1.07 µM | 0.296 ± 0.067 µM | 0.229 µM | > 100 µM | 0.031 µM | 0.027 µM | > 100 µM | 1.35 µM | 0.2 µM | – | – |
